According to US11726082B2, “Screening method of drug candidates for treating disease using interaction between calcium and phosphatidylinositol phosphate” (Gachon University of Industry—Academic Cooperation …, priority 2017, dated 2023):
“Also recorded” adds a separate entry of the source.

What was measured:
Akt protein [1] = test: Western blot of Akt activity with C2-Akt fusion protein and PI3K co-treated with PTEN or SHIP2; format: cell-based; conditions: cells with C2-Akt fusion protein and PI3K vectors co-treated with PTEN or SHIP2
Procedure: Particularly, the experiment was performed by the same manner under the same conditions as described in Example 2 except that the vector expressing the C2-Akt fusion protein and the vector expressing PI3K protein were co-treated with PTEN or SHIP2 and the antibody against Akt (Cell Signaling Technology, USA), Akt(T308) (Cell Signaling Technology, USA), Akt(S473) (Cell Signaling Technology, USA), PI3K (Cell Signaling Technology, USA), PTEN (Cell Signaling Technology, USA) or SHIP2 (Upstate Biotechnology, USA) protein was used as the primary antibody.

[2] = ITC of phospholipid liposomes with calcium; format: binding; conditions: liposome with POPC 80:20, 25° C., unlike POPS
Procedure: Particularly, a protein solution was prepared by suspending a protein in 10 mM HEPES (pH 7.0). Phospholipid related ligand was titrated in the protein solution at 25° C. by using iTC200 micro calorimetry system (MicroCal Inc., USA), and the generated graph was corrected using Origin software (MicroCal Inc., USA). At this time, the phospholipid related ligand was prepared in the form of liposome by mixing POPC (1-palmitoyl-2-oleoyl-sn-glycero-3-phosphocholin) chloroform solution and POPS (1-palmitoyl-2-oleoyl-sn-glycero-3-phosphoserine), PI(3,4)P2 (1,2-dipalmotoyl-sn-glycero-3-phosphatidylinositol-3,4-[…]), PI(4,5)P2 (1,2-dipalmotoyl-sn-glycero-3-phosphatidylinositol-4,5-trisphosphate) or PI(3,4,5)P3 (1,2-dipalmotoyl-sn-glycero-3-phosphatidylinositol-3,4,5-trisphosphate) at the molar ratio of 80:20. The organic solvent was eliminated. The organic solvent was removed and a single layer lamellar was produced in HEPES (pH 7.0) using phospholipids.

Akt protein [3] = test: Western blotting of Akt protein phosphorylation in insulin-treated HepG2 cells; format: cell-based, human; conditions: PMA 0, 10, 50 or 100 nM or ionomycin 0, 1, 5, 10 or 20 μM, 100 nM insulin, dose-dependent
Procedure: First, male C57BL/6 mice at 8 weeks were divided into the fasted group wherein the mice were fasted for 16 hours and the refed group wherein the mice were fasted for 16 hours and then fed for 4 hours. Each group was sub-divided into the high fat diet group (HFD) and the normal diet group (chow). The liver cells were extracted from the raised mice by the same manner and under the same conditions as described in Example 1. The extracted liver cells were lysed in a lysis buffer containing phosphatase (Sigma-Aldrich, USA) and protease inhibitor (Sigma-Aldrich, USA). Proteins extracted from 2 to 3 mg of the liver tissue were homogenized by using a tissue homogenizer (TissuLyser, Qiagen, USA) for 1.5 minutes at a frequency of 1/30 sec. The homogenized lysate was centrifuged at 12,000 rpm for 15 minutes and the supernatant was obtained. The amount of the extracted protein was quantified by using a protein assay kit (Bio-Rad Laboratories, USA), and at this time BSA was used as a standard sample. 3 mg of the protein was mixed with 6× loading buffer, followed by electrophoresis using 10% SDS-PAGE gel. The electrophoresed protein was transferred onto a polyvinylidene fluoride (PVDF) membrane by using a transfer buffer at 4° C. with 120 V for 1.5 hours. The PVDF membrane on which the protein was transferred was pretreated with a blocking buffer prepared by mixing 5% skim milk with TBS buffer (TBS-T, pH 7.6) supplemented with Tween 20 for 30 minutes, and the membrane was washed with TBS-T. The washed membrane was added with the antibody against Akt (Cell Signaling Technology, USA), Akt(T308) (Cell Signaling Technology, USA), Akt(S473) (Cell Signaling Technology, USA), FOXO3A (Cell Signaling Technology, USA), FOXO3A(S253) (Cell Signaling Technology, USA), GSK-3β (Cell Signaling Technology, USA) or GSK-3β(S9) (Cell Signaling Technology, USA) protein as a primary antibody, followed by reaction at 4° C. for 12 hours. At this time, the antibody against actin (Santa Cruz Biotechnology, USA) protein was used for the control group. Upon completion of the reaction, the secondary antibody corresponding to the primary antibody was added thereto, followed by reaction at room temperature for 30 minutes. The PVDF membrane was washed with TBS-T buffer three times. The washed PVDF membrane was added with ECL solution (Thermo Scientific, USA), followed by image observation.
To investigate the changes in insulin sensitivity when insulin was added to the fatty liver cell model constructed in vitro, the phosphorylations of those proteins that were involved in insulin signal transduction were examined. PA was added to the human HepG2 cells prepared in Example 3, followed by reaction for 24 hours. […]

CHO cells = test: Migration of mCherry-tagged PH or C2 domain to the cell membrane, fluorescence microscopy; format: cell-based
Description: First, the PH domain of Akt1 protein or C2 domain of PKCβ protein was obtained by PCR using the primers consisting of the nucleotide sequences represented by […]. The obtained PCR product was cloned in pmCherry-C1 vector (Takara Clontech, Japan) by the conventional cloning method. CHO cells were transfected with the prepared vector by using lipofectamine according to the manufacturer's protocol. The transfected cells were selected by using blastidicin. Then, mCherry positive cells were confirmed by flow cytometry.
PMA at the concentration of 100 nM, ionomycin at the concentration of 10 μM or insulin at the concentration of 100 nM was added to the cells expressing the PH domain of Akt1 protein or the C2 domain of PKCβ protein and the location of the expressed protein was confirmed by fluorescence microscopy.

PH domain of Akt protein = molecular target: T1, PH domain of Akt protein (Homo sapiens, UniProt P31749); test: Protein-lipid binding assay (PIP-strips) with PH domain of Akt protein
T1 construct: His6 (C); made in house; host or cells: E. coli BL21 (DE3), pET28a vector
Procedure: E. coli BL21 (DE3) cells were transfected with a vector containing the PH domain of Akt protein, and the cells were cultured in 50 Ml of LB medium supplemented with 50 μg/Ml of kanamycin. The culture was performed at 37° C. for 8 hours. Upon completion of the culture, the cells were transferred into a 25° C. agitation incubator. The cells were cultured until OD600 reached 0.6 to 1.0, and then 1 mM IPTG (isopropyl-β-D-1-thiogalactopyranoside) was added thereto. 18 hours after the addition of IPTG, centrifugation was performed at 7,000×g at 4° C. for 10 minutes to obtain cells. Sonication equilibrium buffer (150 mM NaCl, 50 mM Tris-HCl, pH 7.6) was added to the obtained cells. The cells added with the sonication equilibrium buffer were lysed by sonication. The PH domain of Akt protein was purified from the cell lysate by […] using nickel-nitrilotriacetic acid and HiLoad Superdex-200 column (GE Healthcare life science, USA). The purity of the purified protein was examined by SDS-PAGE (sodium dodecyl sulfate polyacrylamide gel electrophoresis).
Particularly, the analysis was performed by using membrane-immobilized lipid strips (PIP-strips, Echelon Biosciences Inc., USA). […]

Question: For “PTEN: phosphatase and tensin homolog, co-treated”, which Akt protein activity (Akt protein [1]) is on record?
Answer: reduced

Question: With CCCCCCCCCCCCCCCC(=O)OCC(COP(=O)(O)OC1C(O)C(OP(=O)(O)O)C(OP(=O)(O)O)C(OP(=O)(O)O)C1O)OC(=O)CCCCCCCCCCCCCCC (stereo not drawn) [PI(3,4,5)P3, 1,2-dipalmotoyl-sn-glycero-3-phosphatidylinositol-3,4,5-trisphosphate] as the molecule, how does the binding to calcium [2] read?
Answer: high affinity; also recorded: strong binding force

Question: With CCCCCCCCCCCCCCCC(=O)OCC(COP(=O)(O)OC1C(O)C(O)C(OP(=O)(O)O)C(OP(=O)(O)O)C1O)OC(=O)CCCCCCCCCCCCCCC (stereo not drawn) [PI(3,4)P2, 1,2-dipalmotoyl-sn-glycero-3-phosphatidylinositol-3,4-triphosphate] as the molecule, how does the binding to calcium [2] read?
Answer: high affinity; also recorded: strong binding force

Question: With CCCCCCCCCCCCCC(=O)O[C@@H]1[C@@H](C)[C@@]2(O)[C@@H](C=C(CO)C[C@]3(O)C(=O)C(C)=C[C@@H]23)[C@@H]2C(C)(C)[C@]12OC(C)=O [PMA, phorbol myristate acetate] as the molecule, how does the “phosphorylation of Akt protein” value (Akt protein [3]) read?
Answer: significantly inhibited

Question: Which “phosphorylation of Akt protein” value (Akt protein [3]) does the source give for C[C@H](CCC(=O)O)C[C@H](C)C[C@H](C)C(=O)/C=C(\O)[C@H](C)C[C@H](C)C/C=C/[C@@H](C)[C@@H](O)[C@@H](C)[C@@H](O)C[C@@H]1CC[C@@](C)([C@H]2CC[C@@](C)([C@@H](C)O)O2)O1 [ionomycin] here?
Answer: significantly inhibited

Question: For CCCCCCCCCCCCCCCC(=O)OCC(COP(=O)(O)OC1C(O)C(O)C(OP(=O)(O)O)C(OP(=O)(O)O)C1O)OC(=O)CCCCCCCCCCCCCCC (stereo not drawn) [PI(4,5)P2, 1,2-dipalmotoyl-sn-glycero-3-phosphatidylinositol-4,5-trisphosphate], which binding to calcium [2] is on record?
Answer: high affinity; also recorded: strong binding force

B1: PH domain of Akt protein: PH domain of Akt1 protein (SEQ. ID. NO: 13) (protein)
chain: MSDVAIVKEGWLHKRGEYIKTWRPRYFLLKNDGTFIGYKERPQDVDQREAPLNNFSVAQCQLMKTERPRPNTFIIRCLQWTTVIERTFHVETPEEREEWTTAIQTVADGLKKQEEEEMDFRSGSPSDNSGAEEMEVSLAKPKHR
modifications: PH domain of Akt protein
Question: Which “migration to the cell membrane” value (CHO cells; addition of insulin 100 nM) does the source give for B1 here?
Answer: ted to the cell membrane

Question: And the “migration to the cell membrane” value (CHO cells; increased intracellular calcium concentration (PMA 100 nM, ionomycin 10 μM))?
Answer: not observed; also recorded: inhibited

Question: And the “binding to PI(3,4)P2 or PI(3,4,5)P3” value (PH domain of Akt protein)?
Answer: bound
